The target in the assay is T1, thiaminase II (TenA) (Bacillus subtilis, UniProt P25052).
T1 sequence (P25052 1-236): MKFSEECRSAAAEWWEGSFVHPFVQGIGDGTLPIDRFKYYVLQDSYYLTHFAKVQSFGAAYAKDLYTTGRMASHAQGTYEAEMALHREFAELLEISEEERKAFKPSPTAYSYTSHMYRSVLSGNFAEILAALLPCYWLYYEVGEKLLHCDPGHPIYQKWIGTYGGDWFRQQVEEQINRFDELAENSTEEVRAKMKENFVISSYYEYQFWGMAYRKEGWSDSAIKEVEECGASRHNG
The assay is described as follows: nhPHIP hyperpolarized NMR of iridium hydride signals in reverse micelles; agrees with a titration of TenA with ABAP (KD […]). The class given is binding.

Data on 1 compound can be found in article PMC11664502, “Parahydrogen Polarization in Reverse Micelles and Application to Sensing of Protein–Ligand Binding” (Journal of the American Chemical Society, 2024).

Each structure is given as a SMILES string.

For orientation: Kd means the free concentration of one partner at which half of the binding sites on the other are occupied at equilibrium, for simple one-to-one binding. With `Nc1ccnc(NCc2ccccc2)n1` [L, 4-amino-2-benzylaminopyrimidine], the affinity, expressed as Kd, was 39.7 ± 8.9 µM.
